How the values were obtained:
[1] = Volume of distribution at steady state in dog at 1 mg/kg,iv administration measured after 24 hrs by LC-MS/MS analysis; assay type: ADME, organism-based, Canis lupus familiaris; conditions: in vivo, read-out: Vdss
[2] = Metabolic Stability in human liver microsome assessed as half life at […] measured upto 60 mins by HPLC-MS/MS analysis; assay type: ADME; conditions: liver microsomes
[3] = Clearance in rat at 1 mg/kg,iv administration measured after 24 hrs by LC-MS/MS analysis; assay type: ADME, organism-based; conditions: in vivo
[4] = Toxicity against C57BL/6 mouse xenografted with mouse B16-F10 cells assessed as animal death at 25 to 100 mg/kg,ip administrated on day 7 for 8 days; assay type: organism-based; conditions: in vivo, 192 h, dose 25-100 mg/kg, time 8 day
[5] = Metabolic Stability in mouse liver microsome assessed as microsomal intrinsic clearance at […] measured upto 60 mins by HPLC-MS/MS analysis; assay type: ADME; conditions: liver microsomes, read-out: CLH
[6] = Half life in dog at 2 mg/kg,po administration measured after 24 hrs by LC-MS/MS analysis; assay type: ADME, organism-based, Canis lupus familiaris; conditions: in vivo
[7] = Metabolic Stability in cynomolgus monkey liver microsome assessed as intrinsic clearance at […] measured upto 60 mins by HPLC-MS/MS analysis; assay type: ADME, Macaca fascicularis; conditions: microsomes, 1 h
[8] = Half life in rat at 1 mg/kg,iv administration measured after 24 hrs by LC-MS/MS analysis; assay type: ADME, organism-based; conditions: in vivo
B16-F10 = test: Antitumor activity against mouse B16-F10 cells xenografted in C57BL/6 mouse assessed as tumor growth inhibition at 25 mg/kg,ip administrated on day 7 for 8 days relative to control; assay type: functional; conditions: B16-F10, 192 h, time 8 day, read-out: TGI
[9] = AUC(infinity) in dog at 1 mg/kg,iv administration measured after 24 hrs by LC-MS/MS analysis; assay type: ADME, organism-based, Canis lupus familiaris; design: time 24 hrs, dose 1 mg/kg, route iv; conditions: in vivo
[10] = Metabolic Stability in dog liver microsome assessed as microsomal intrinsic clearance at […] measured upto 60 mins by HPLC-MS/MS analysis; assay type: ADME, Canis lupus familiaris; conditions: liver microsomes, read-out: CLH
[11] = Metabolic Stability in human liver microsome assessed as intrinsic clearance at […] measured upto 60 mins by HPLC-MS/MS analysis; assay type: ADME; conditions: microsomes, 1 h
[12] = Metabolic Stability in dog liver microsome assessed as half life at […] measured upto 60 mins by HPLC-MS/MS analysis; assay type: ADME, Canis lupus familiaris; conditions: liver microsomes
[13] = Metabolic Stability in cynomolgus monkey liver microsome assessed as half life at […] measured upto 60 mins by HPLC-MS/MS analysis; assay type: ADME, Macaca fascicularis; conditions: liver microsomes
[14] = Genotoxicity in Salmonella typhimurium TA100 by mini-Ames mutagenicity test; assay type: toxicity; conditions: salmonella enterica subsp. enterica serovar typhimurium
[15] = Metabolic Stability in rat liver microsome assessed as half life at […] measured upto 60 mins by HPLC-MS/MS analysis; assay type: ADME; conditions: liver microsomes
[16] = AUC(infinity) in CD-1 mouse at 1 mg/kg,iv administration measured after 24 hrs by LC-MS/MS analysis; assay type: ADME, organism-based; design: time 24 hrs, dose 1 mg/kg, route iv; conditions: in vivo
[17] = Toxicity against C57BL/6 mouse xenografted with mouse Lung adenocarcinoma cell line assessed as change in body weight at 100 mg/kg,po administrated on day 7 for 12 days; assay type: organism-based; conditions: in vivo, 288 h, time 12 day
[18] = Metabolic Stability in human liver microsome assessed as microsomal intrinsic clearance at […] measured upto 60 mins by HPLC-MS/MS analysis; assay type: ADME; conditions: liver microsomes, read-out: CLH
[19] = Antitumor activity against mouse Lung adenocarcinoma cell line xenografted in C57BL/6 mouse assessed as tumor growth inhibition at 50 mg/kg,ip administrated on day 7 for 12 days relative to control; assay type: functional; conditions: 288 h, time 12 day, read-out: TGI
[20] = Toxicity against C57BL/6 mouse xenografted with mouse B16-F10 cells assessed as body weight loss at 25 to 100 mg/kg,ip administrated on day 7 for 8 days; assay type: organism-based; conditions: in vivo, 192 h, dose 25-100 mg/kg, time 8 day
[21] = Volume of distribution at steady state in rat at 1 mg/kg,iv administration measured after 24 hrs by LC-MS/MS analysis; assay type: ADME, organism-based; conditions: in vivo, read-out: Vdss
[22] = Metabolic Stability in cynomolgus monkey liver microsome assessed as microsomal intrinsic clearance at […] measured upto 60 mins by HPLC-MS/MS analysis; assay type: ADME, Macaca fascicularis; conditions: liver microsomes, read-out: CLH
[23] = Genotoxicity in Salmonella typhimurium TA98 by mini-Ames mutagenicity test; assay type: toxicity; conditions: salmonella enterica subsp. enterica serovar typhimurium
[24] = Antitumor activity against mouse Lung adenocarcinoma cell line xenografted in C57BL/6 mouse assessed as tumor growth inhibition at 25 mg/kg,ip administrated on day 7 for 12 days relative to control; assay type: functional; conditions: 288 h, time 12 day, read-out: TGI

CCS(=O)(=O)c1ccc(CC(=O)Nc2cc(Cl)c(-c3ccc(OC(C)C)c(C#N)c3)c(Cl)c2)cc1
Vd [1]: 2.5 L/kg
half-life [2]: > 2.42 h
clearance [3]: 3.2 mL/min/kg
Activity [4]: Non-Toxic
microsomal CLint [5]: < 9.6 µL/min/mg
half-life [6]: 59.1 h
CLH [7]: 60.2 µL/min/mg
half-life [8]: 11.2 h
inhibition in vivo at 25 mg/kg (B16-F10): 51.6%
AUC(0-inf) [9]: 27000 ng·h/mL
microsomal CLint [10]: < 9.6 µL/min/mg
CLH [11]: < 8.6 µL/min/mg
half-life [12]: > 2.42 h
half-life [13]: 0.518 h
Activity [14]: Non-Toxic
half-life [15]: > 2.42 h
AUC [16]: 4621.9 ng·h/mL
Activity [17]: Non-Toxic
microsomal CLint [18]: < 9.6 µL/min/mg
inhibition in vivo at 50 mg/kg [19]: 75.6%
Activity [20]: Non-Toxic
Vd [21]: 2.8 L/kg
microsomal CLint [22]: 44.6 µL/min/mg
Activity [23]: Non-Toxic
inhibition in vivo at 25 mg/kg [24]: 46.2%

— ChEMBL document CHEMBL5375953, “Discovery of Biaryl Amide Derivatives as Potent, Selective, and Orally Bioavailable RORγt Agonists for Cancer Immunotherapy” (J Med Chem, 2023)
